In the supplement of paper PMC4862054:

Experiments:
Conditions in all cases: incubation time: 72 h
BT-474 [1] = assay: normalised response (% of control), CellTox Green; higher = less cell death (100 = DMSO, 0 = benzethonium chloride kill control)
How it was run: (§1)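 A 20 µl suspension of breast cancer cells was seeded into each well of 384-well plates containing compound at 5 concentrations in 10-fold steps over a compound-specific 10,000-fold range. After 72 h incubation, CellTox Green fluorescence (485/520 nm) was read first, and CellTiter-Glo luminescence was read after 10 min at room temperature. Each plate was normalised against 0.1 % DMSO (100) and a positive kill control (0), and each value is the normalised signal at one concentration.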

BT-549 [2] = assay: as above
How it was run: as §1

CAL-120 [3] = assay: as above
How it was run: as §1

CAL-148 [4] = assay: as above
How it was run: as §1

CAL-51 [5] = assay: as above
How it was run: as §1

CAL-85-1 [6] = assay: as above
How it was run: as §1

DU-4475 [7] = assay: as above
How it was run: as §1

HCC1143 [8] = assay: as above
How it was run: as §1

HCC1599 [9] = assay: as above
How it was run: as §1

HDQ-P1 [10] = assay: as above
How it was run: as §1

Hs578T [11] = assay: as above
How it was run: as §1

MCF-10A [12] = assay: as above
How it was run: as §1

MDA-MB-231 [13] = assay: as above
How it was run: as §1

MDA-MB-436 [14] = assay: as above
How it was run: as §1

MDA-MB-453 [15] = assay: as above
How it was run: as §1

MFM-223 [16] = assay: as above
How it was run: as §1

BT-474 [17] = assay: normalised response (% of control), CellTiter-Glo; higher = more viable cells (100 = DMSO, 0 = benzethonium chloride kill control)
How it was run: as §1

BT-549 [18] = assay: as above
How it was run: as §1

CAL-120 [19] = assay: as above
How it was run: as §1

CAL-148 [20] = assay: as above
How it was run: as §1

CAL-51 [21] = assay: as above
How it was run: as §1

CAL-85-1 [22] = assay: as above
How it was run: as §1

DU-4475 [23] = assay: as above
How it was run: as §1

HCC1143 [24] = assay: as above
How it was run: as §1

HCC1599 [25] = assay: as above
How it was run: as §1

HCC1937 [26] = assay: as above
How it was run: as §1

HDQ-P1 [27] = assay: as above
How it was run: as §1

Hs578T [28] = assay: as above
How it was run: as §1

MCF-10A [29] = assay: as above
How it was run: as §1

MDA-MB-231 [30] = assay: as above
How it was run: as §1

MDA-MB-436 [31] = assay: as above
How it was run: as §1

MDA-MB-453 [32] = assay: as above
How it was run: as §1

MDA-MB-468 [33] = assay: as above
How it was run: as §1

MFM-223 [34] = assay: as above
How it was run: as §1

SK-BR-3 = assay: as above
How it was run: as §1

HCC1937 [35] = assay: normalised response (% of control), CellTox Green; higher = less cell death (100 = DMSO, 0 = benzethonium chloride kill control)
How it was run: as §1

MDA-MB-468 [36] = assay: as above
How it was run: as §1

SMILES	normalised response (BT-474 [1]) [%]	normalised response (BT-549 [2]) [%]	normalised response (CAL-120 [3]) [%]	normalised response (CAL-148 [4]) [%]	normalised response (CAL-51 [5]) [%]	normalised response (CAL-85-1 [6]) [%]	normalised response (DU-4475 [7]) [%]	normalised response (HCC1143 [8]) [%]	normalised response (HCC1599 [9]) [%]	normalised response (HDQ-P1 [10]) [%]	normalised response (Hs578T [11]) [%]	normalised response (MCF-10A [12]) [%]	normalised response (MDA-MB-231 [13]) [%]	normalised response (MDA-MB-436 [14]) [%]	normalised response (MDA-MB-453 [15]) [%]	normalised response (MFM-223 [16]) [%]	normalised response (BT-474 [17]) [%]	normalised response (BT-549 [18]) [%]	normalised response (CAL-120 [19]) [%]	normalised response (CAL-148 [20]) [%]	normalised response (CAL-51 [21]) [%]	normalised response (CAL-85-1 [22]) [%]	normalised response (DU-4475 [23]) [%]	normalised response (HCC1143 [24]) [%]	normalised response (HCC1599 [25]) [%]	normalised response (HCC1937 [26]) [%]	normalised response (HDQ-P1 [27]) [%]	normalised response (Hs578T [28]) [%]	normalised response (MCF-10A [29]) [%]	normalised response (MDA-MB-231 [30]) [%]	normalised response (MDA-MB-436 [31]) [%]	normalised response (MDA-MB-453 [32]) [%]	normalised response (MDA-MB-468 [33]) [%]	normalised response (MFM-223 [34]) [%]	normalised response (SK-BR-3) [%]	normalised response (HCC1937 [35]) [%]	normalised response (MDA-MB-468 [36]) [%]
COc1cc(Nc2ncc(F)c(Nc3ccc4c(n3)NC(=O)C(C)(C)O4)n2)cc(OC)c1OC [Tamatinib] (1000 nM)	99.7	90.7	105	102	89.9	103	100	119	103	105	108	105	107	94.2	103	103	96.6	77.5	97.2	95.6	92.1	95.1	103	104	106	102	98.4	101	104	101	104	105	88.7	104	104		
C[C@@H]1CCN(C(=O)CC#N)C[C@@H]1N(C)c1ncnc2[nH]ccc12 [Tofacitinib] (500 nM)	104	129	102	108	103	102	101	98	112	102	115	64.1	116	82.4	101	103	107	98.4	98.6	109	75.8	106	103	99.6	138	100	104	99.8	97.5	107	104	94.5	104	108	107	132	137
CCCC(CCC)C(=O)O [Valproic acid] (100000 nM)	98.1	95.3	107	85.4	53.4	107	105	110	101	75.3	63.5	53	102	109	111	99.4	98.6	103	96.1	91.4	83.5	101	94	101	94.1	103	101	104	101	98.7	101	91.1	97.8	99.2	101	86.4	123
FC(F)c1nc2ccccc2n1-c1nc(N2CCOCC2)nc(N2CCOCC2)n1 [ZSTK474] (1000 nM)	90.7	95.5	107	89.5	92.8	101	102	77.2	96.3	49.5	104	57.7	90.3	85.9	103	71	70.3	42.4	65.4	69.2	49.7	49.8	87.9	73.5	79.1	69.7	51.9	45.4	47.5	61.6	56.8	40.4	58.3	55.8	35.2	101	79.9
